The test system of test [1] is six MRSA clinical isolates. Put plainly: MIC assays against MRSA clinical isolates. The class given is cell-based. The settings on record: Staphylococcus aureus, read-out: MIC against six MRSA clinical isolates.
Test [2] has as its system iron uptake genes isdB, sfaA, sbnC, MW0695 in MRSA-1707 biofilms. Conditions: 5 μM; previous work ref 39; cited from earlier work.
Test [3] concerns MRSE 35984 biofilms. As to the kind of experiment: Calgary biofilm device. The settings on record: Staphylococcus epidermidis, read-out: MRSE 35984 MBC.
Test [4] deals with VRE 700221 (E. faecium ATCC 700221). As to the kind of experiment: MIC broth microdilution, VRE 700221. The settings on record: 16 h. In general terms: Dilution methods test growth across graded concentrations, often in twofold steps.
In test [5] the test system is M. tuberculosis H37Ra (ATCC 25177). Put plainly: MIC assay for Mtb H37Ra. The class given is cell-based. Conditions: Mycobacterium tuberculosis, ATCC25177|H37RA, 168 h, read-out: MIC Mtb H37Ra.
For test [6], the system named is MRSA, MRSE, and VRE strains. Put plainly: MIC summarised across several Gram-positive strains.
Test [7] deals with iron uptake genes isdB, sfaA, sbnC, MW0695 in MRSA-1707 biofilms. Put plainly: RT-qPCR of iron uptake genes in MRSA biofilms. The settings on record: established biofilms, 4 h, 1 μM or 1/10 × MBEC. Background: Real-time PCR tracks product formation cycle by cycle.
Test [8] has as its system J774 macrophages. Put plainly: Alamar Blue cytotoxicity, J774 macrophages. In kind it is cell-based. Conditions: IC50 J774 MΦ and HepG2 vs MIC against MRSA, MRSE, VRE strains. (In general: The colour change of resazurin is a common sign of viable cells or microbes.)

The structures appear in SMILES notation. In brackets after ≈: the same amount, converted by molar mass. Entries after “also recorded” stand apart in the source; their conditions may differ.

On to `Oc1c(Br)cc(Br)c2nc3ccccc3nc12` [HP 3], for which the MIC (usually the lowest concentration found to suppress growth) in test [1] is 1.25 to 2.5 µM (≈ 0.443 to 0.885 µg/mL).

`O=C(O)CN(CCN(CC(=O)O)CC(=O)O)CC(=O)O` [EDTA, ethylenediaminetetraacetic acid]: the “upregulation of iron uptake genes” value in test [2] is listed as “do not upregulate”.

Take `CCSc1c(Br)c(O)c2nc3cccc(C)c3nc2c1Br` [HP 45, 2,4-Dibromo-3-(ethylthio)-6-methylphenazin-1-ol]: in test [1], the MIC lay in the range of 0.31 to 0.63 µM (≈ 0.133 to 0.27 µg/mL). In the case of `CN[C@H](CC(C)C)C(=O)N[C@H]1C(=O)N[C@@H](CC(N)=O)C(=O)N[C@H]2C(=O)N[C@H]3C(=O)N[C@H](C(=O)N[C@H](C(=O)O)c4cc(O)cc(O)c4-c4cc3ccc4O)[C@H](O)c3ccc(c(Cl)c3)Oc3cc2cc(c3O[C@@H]2O[C@H](CO)[C@@H](O)[C@H](O)[C@H]2O[C@H]2C[C@](C)(N)[C@H](O)[C@H](C)O2)Oc2ccc(cc2Cl)[C@H]1O` [vancomycin], the MBC in test [3] was 3 µM (≈ 4.35 µg/mL). For the same compound, the “MIC VRE 700221” value in test [4] (BHI, 37 °C, d lowest test concentration) is above 100 µM. Further, in test [4] (Enterococcus, ATCC700221|VRE, read-out: MIC VRE 700221), the MIC was above 100 µM. Turning to `CN[C@@H]1[C@H](O[C@H]2[C@H](O[C@H]3[C@H](O)[C@@H](O)[C@H](N=C(N)N)[C@@H](O)[C@@H]3N=C(N)N)O[C@@H](C)[C@]2(O)C=O)O[C@@H](CO)[C@H](O)[C@H]1O` [streptomycin], the minimum inhibitory concentration (MIC) in test [5] was 1.32 µM (≈ 0.768 µg/mL). For the compound `c1ccc(CN(CCN(Cc2ccccn2)Cc2ccccn2)Cc2ccccn2)nc1` [TPEN, N,N,N′,N′-tetrakis(2-pyridinylmethyl)-1,2-ethanediamine], in test [2], the “upregulation of iron uptake genes” value is given as “do not upregulate”. Take `Cc1cccc2nc3c(O)c(Br)c(Cl)c(Br)c3nc12` [HP 29, 2,4-Dibromo-3-chloro-6-methylphenazin-1-ol]: the MIC in test [1] was 0.06 to 0.12 µM (≈ 0.0241 to 0.0483 µg/mL). Also, the “MICs against all Gram-positive strains in the panel” value in test [6] was “submicromolar”. For the same compound, the “induction of iron starvation (upregulation of iron uptake genes)” value in test [7] is on record as “induce rapid iron starvation; also recorded: rapidly induce iron starvation”. Further, in test [8], the “selectivity index (SI)” value was above 2000. For the compound `Oc1c(Br)c(Cl)c(Br)c2nc3c(Cl)cc(Cl)cc3nc12` [HP 34, 2,4-Dibromo-3,6,8-trichlorophenazin-1-ol], the MIC in test [1] lay within 0.47 to 1.25 µM (≈ 0.215 to 0.572 µg/mL).

Values taken from paper PMC8192493 (Journal of medicinal chemistry, 2021).
